Test results reported in publication PMC10034449, “FDA-approved Abl/EGFR/PDGFR kinase inhibitors show potent efficacy against pandemic and seasonal influenza A virus infections of human lung explants” (iScience, 2023).
“And” between values parts separate entries of the source, which are not always exact repeats. Equal values may be shown once.

Legend:
NL09 or NL11 [1] = type: cell-based, influenza A virus
[2] = test system: NL11 viral polymerase activity; type: cell-based, influenza A virus
[3] = test system: A/Netherlands/602/09 (H1N1) replication complex (PB2, PB1, PA, NP); type: cell-based, influenza A virus
[4] = test system: A/NL/213/03 (H3N2) replication complex (PB2, PB1, PA, NP); type: cell-based, influenza A virus
[5] = test system: human precision-cut lung slices (hPCLS); assay: Ex vivo cytotoxicity in hPCLS (LDH-Glo, LDH release); details: 10xmax: DF 50 μM, BO 50 μM, SA 1.25 μM, up to 144 h
NL09 or NL11 [6] = type: cell-based, influenza A virus; remark: listed apart in the source
[7] = test system: NL09 viral polymerase activity; type: cell-based, influenza A virus
NFkBpS536 (NFkB p65) = type: cell-based, human
PAK3 = details: 0.48 μM; cited from earlier work
PDGFRα vs PDGFRβ = test system: PDGFRα vs PDGFRβ; parameters: method as in PMID 19922818; details: cited from earlier work

Row | Compound | effect on viral entry / virion localization (NL09 or NL11 [1]) | % Luminescence (relative to untreated / normalized to GFP) [2] | % Luminescence (relative to untreated / normalized to GFP) [3] | significance of titer reduction over the infection (NL09 or NL11 [6]) | viral titer reduction (NL09 or NL11 [6]) | further results
1 | CN1CCN(CCOc2cc(OC3CCOCC3)c3c(Nc4c(Cl)ccc5c4OCO5)ncnc3c2)CC1 [SA, Saracatinib] | No significant changes were detectable | 53% | 68% |  |  | % Luminescence (relative to untreated / normalized to GFP) [4]: 66%; cytotoxicity (LDH release) relative to positive control [5]: > 20%
2 | CC#CC(=O)N1CCC[C@H]1c1nc(-c2ccc(C(=O)Nc3ccccn3)cc2)c2c(N)nccn12 [AC, Acalabrutinib] | No significant changes were detectable | 67% | 82% | only significant at 24 and 48 hpi |  | 
3 | C=CC(=O)N1CCC[C@@H](n2nc(-c3ccc(Oc4ccccc4)cc3)c3c(N)ncnc32)C1 [IB, Ibrutinib] | significant retention at the membrane and cell periphery |  |  | significant throughout the infections | more than 1,000 fold | 
4 | CNC(=O)c1ccc(Nc2ncc(C(F)(F)F)c(NCc3nccnc3N(C)S(C)(=O)=O)n2)cc1 [DF, Defactinib] | significant retention at the membrane and cell periphery |  |  | only significant at 24 and 48 hpi | at least 10 fold | reduction of polymerase reporter activity [7]: 20%; reduction of polymerase reporter activity [2]: 13%; NFkB p65 phosphorylation, pNFkB p65 / panNFkB p65 ratio (rel. to untreated) (NFkBpS536 (NFkB p65)): 64% and 68%; cytotoxicity (LDH release) relative to positive control [5]: > 20%
5 | CCN(CC)CCNC(=O)c1c(C)[nH]c(/C=C2\C(=O)Nc3ccc(F)cc32)c1C [sunitinib] |  |  |  |  |  | effect on PAK3 activity (PAK3): not even a 30-fold higher concentration (0.48 μM) has an effect
6 | poly(IC) |  |  |  |  |  | induction of NFkBpS536 (NFkBpS536 (NFkB p65)): induced NFkBpS536
7 | COc1cc(Nc2c(C#N)cnc3cc(OCCCN4CCN(C)CC4)c(OC)cc23)c(Cl)cc1Cl [BO, Bosutinib] | no virus was detected |  |  | significant throughout the infections |  | F-actin network (NL09 or NL11 [1]): not detectable
8 | Cc1cn(-c2cc(NC(=O)c3ccc(C)c(Nc4nccc(-c5cccnc5)n4)c3)cc(C(F)(F)F)c2)cn1 [NI, Nilotinib] | No significant changes were detectable | 62% and 45% | 73% and 61% | significant throughout the infections | more than 1,000 fold | % Luminescence (relative to untreated / normalized to GFP) [7]: 50%; % Luminescence (relative to untreated / normalized to GFP) [4]: 71% and 64%; selectivity for PDGFRα than PDGFRβ (PDGFRα vs PDGFRβ): > 25 fold
